ChEMBL document CHEMBL5625217, “New bysspectin A derivatives as potent inhibitors of human carboxylesterase 2A” (Eur J Med Chem, 2023)

What was measured:
[1] = Inhibition of human CES2A using fluorescein diacetate as fluorescent substrate preincubated for 3 mins followed by substrate addition and measured after 30 mins by fluorescence based analysis
[2] = Inhibition of human CES1A using NLMe as substrate preincubated for 3 mins followed by substrate addition and measured after 20 mins by Spectra max microplate reader analysis
Homo sapiens = species: Homo sapiens; assay: Selectivity ratio of IC50 for human CES1A to IC50 for human CES2A
[3] = Metabolic stability in human liver microsomes assessed as half life at 10 uM preincubated for 3 mins followed by NADPH addition and measured upto 120 mins by HPLC analysis; type: ADME, Microsome; details: time < 123 min
[4] = Inhibition of intracellular CES2A in human HepG2 cells assessed as reduction in NCEN hydrolysis incubated for 1 hr; type: cell-based
[5] = Metabolic stability in human liver microsomes assessed as half life at 10 uM preincubated for 3 mins followed by UDPGA addition and measured upto 120 mins by HPLC analysis; type: ADME, Microsome; details: time < 123 min
HepG2 = assay: Cytotoxicity against human HepG2 cells assessed as reduction in cell viability at 10 uM measured after 24 hrs by CCK-8 method; type: toxicity, cell-based; details: hepg2, 24 h
[6] = Binding affinity to human CES2A assessed as inhibition constant using fluorescein diacetate as fluorescent substrate preincubated for 3 mins followed by substrate addition and measured after 30 mins by Lineweaver-Burk plot analysis

| Compound | IC50 [1] [nM] | also measured |
| --- | --- | --- |
| CCCCCCC(=O)c1cccc2oc(-c3cc(C(F)(F)F)ccc3O)cc12 | 20 |  |
| CCCCCCCCC(=O)c1cccc2oc(-c3cc(C)ccc3O)cc12 | 54 |  |
| CCCCCCCCC(=O)c1cccc2oc(-c3ccc(C)cc3C(=O)O)cc12 | 110 |  |
| CCCCCCCCC(=O)c1cccc2oc(-c3ccc(OC)cc3O)cc12 | 140 |  |
| CCCCCCCCC(=O)c1cccc2oc(-c3ccccc3C(=O)OC)cc12 | 100 |  |
| CCCCCCCCC(=O)c1cccc2oc(-c3cc(OC)ccc3O)cc12 | 22 | IC50 [2]: 2610 nM |
| CCCCCCC(=O)c1cccc2oc(-c3cc(C(=O)O)ccc3O)cc12 | 200 |  |
| CCCCCCCCC(=O)c1cccc(O)c1-c1cc2c(C(=O)CCCCCC)cccc2o1 | 58 |  |
| CCCCCCC(=O)c1c(C)ccc2oc(-c3cc(OC)ccc3O)cc12 | 2 | Ratio IC50 (Homo sapiens): 4540; half-life at 10 µM [3]: 2.1 h; IC50 ([4]; Homo sapiens, HepG2, 1 h, read-out: IC50): 52 nM; IC50 ([4]; hepg2): Dose-Dependent Effect; IC50 [2]: 7260 nM; half-life at 10 µM [5]: 1.62 h; Activity (HepG2): Non-Toxic; Ki [6]: 1.4 nM |
| CCCCCCC(=O)c1cccc2oc(-c3cc(OC)ccc3O)cc12 | 8 |  |
| CCCCCCCCC(=O)c1cccc2oc(-c3ccccc3C(=O)O)cc12 | 130 |  |
| CCCCCCC(=O)c1cccc2oc(-c3ccc(C)cc3C(=O)O)cc12 | 490 |  |
| CCCCCCC(=O)c1cccc2oc(-c3cc(OCC)ccc3O)cc12 | 9 |  |
| CCCCCCC(=O)c1cccc2oc(-c3ccccc3C(=O)OC)cc12 | 250 |  |
| CCCCCCCCC(=O)c1cccc(O)c1-c1cc2c(C(=O)CCCCCCCC)cccc2o1 | 1090 |  |
| CCCCCCCCC(=O)c1cccc2oc(-c3ccccc3)cc12 | 5410 |  |
| CCCCCCCCC(=O)c1cccc(O)c1-c1cc2ccccc2o1 | 230 |  |

| Compound | IC50 [1] [nM] | also measured |
| --- | --- | --- |
| CCCCCCC(=O)c1cccc2oc(-c3cc(C(=O)OC)ccc3O)cc12 | 35 |  |
| CCCCCCC(=O)c1cccc2oc(-c3ccc(C)cc3C(=O)OC)cc12 | 300 |  |
| CCCCCCCCC(=O)c1cccc(O)c1-c1cc2ccc(OC)cc2o1 | 190 |  |
| C[C@]12CC[C@H]3[C@@H](CCC4=CC(=O)CC[C@@]43C)[C@@H]1CC[C@@H]2O [TESTOSTERONE] |  | half-life at 10 µM [3]: 0.46 h |
| O=c1ccc2ccc(O)cc2o1 [UMBELLIFERONE] |  | half-life at 10 µM [5]: 0.304 h |
| CN(C)C(=O)C(CCN1CCC(O)(c2ccc(Cl)cc2)CC1)(c1ccccc1)c1ccccc1 [LOPERAMIDE] | 350 |  |
| CCCCCCCCC(=O)c1cccc(O)c1-c1cc2c(C(=O)CCC)cccc2o1 | 120 |  |
| CCCCCCCCC(=O)c1cccc2oc(-c3c(O)cccc3C(=O)CCCCCC)cc12 | 54 |  |
| CCCCCCCCC(=O)c1cccc(OC(C)=O)c1-c1cc2c(C(=O)CCCCCCCC)cccc2o1 | 690 |  |
| CCCCCCCCC(=O)c1cccc(O)c1-c1cc2cc(C)ccc2o1 | 84 |  |
| CCCCCCCCC(=O)c1cccc2oc(-c3ccc(C)cc3C(=O)OC)cc12 | 310 |  |
| CCCCCCC(=O)c1cccc2oc(-c3ccccc3C(=O)O)cc12 | 360 |  |
| CCCCCCCCC(=O)c1cccc2oc(-c3c(O)cccc3C(=O)CCC)cc12 | 29 |  |
| CCCCCCCCC(=O)c1cccc2oc(-c3ccccc3O)cc12 | 32 |  |
| CCCCCCCCC(=O)c1cccc(OC)c1-c1cc2c(C(=O)CCCCCCCC)cccc2o1 | 600 |  |
| CCCC(=O)c1cccc2oc(-c3cc(OC)ccc3O)cc12 | 21 |  |
| CCCCCCCCC(=O)c1cccc(O)c1-c1cc2cc(OC)ccc2o1 | 100 |  |
